Measured values as given in ChEMBL document CHEMBL1255512, “Pyrazolo[1,5-a]pyrimidine acetamides: 4-Phenyl alkyl ether derivatives as potent ligands for the 18 kDa translocator protein (TSPO)” (Bioorg Med Chem Lett, 2010).

Test: Displacement of [3H]Ro151788 from CBR in rat […]
Type: tissue-based

Ki, > 10 µM:
CCN(CC)C(=O)Cc1c(-c2ccc(OC)cc2)nn2c(C)cc(C)nc12
CCC(C)N(C)C(=O)c1cc2ccccc2c(-c2ccccc2Cl)n1 (stereo not drawn) [PK-11195]
CCN(CC)C(=O)Cc1c(-c2ccc(OCCF)cc2)nn2c(C)cc(C)nc12 [DPA-714]
